Source: PubChem BioAssay (NCI)
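Assay format: 96-well plates, 48-hour exposure. TGI is the concentration that stops growth completely.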

Tests used:
Assay in all cases: growth of human tumour cells (NCI), 48 h
CAKI-1 renal = tested on: CAKI-1 renal
MOLT-4 leukemia = tested on: MOLT-4 leukemia
BT-549 breast = tested on: BT-549 breast
M14 melanoma = tested on: M14 melanoma
COLO 205 colon = tested on: COLO 205 colon
K-562 leukemia = tested on: K-562 leukemia
CCRF-CEM leukemia = tested on: CCRF-CEM leukemia
DU-145 prostate = tested on: DU-145 prostate
DMS 114 small cell lung = tested on: DMS 114 small cell lung
SK-MEL-2 melanoma = tested on: SK-MEL-2 melanoma
TK-10 renal = tested on: TK-10 renal
OVCAR-4 ovarian = tested on: OVCAR-4 ovarian
OVCAR-3 ovarian = tested on: OVCAR-3 ovarian
NCI-H23 lung = tested on: NCI-H23 lung
SK-MEL-5 melanoma = tested on: SK-MEL-5 melanoma
MCF7 breast = tested on: MCF7 breast
OVCAR-8 ovarian = tested on: OVCAR-8 ovarian
NCI/ADR-RES ovarian = tested on: NCI/ADR-RES ovarian
SN12C renal = tested on: SN12C renal
NCI-H226 lung = tested on: NCI-H226 lung

Measured: TGI

Cc1nc2ccccc2c(=O)n1NC(=S)Nc1ccc(Cl)cc1[N+](=O)[O-]
> 100 µM: CAKI-1 renal | MOLT-4 leukemia | BT-549 breast | M14 melanoma | COLO 205 colon | K-562 leukemia | CCRF-CEM leukemia | DU-145 prostate | DMS 114 small cell lung | SK-MEL-2 melanoma | TK-10 renal | OVCAR-4 ovarian | OVCAR-3 ovarian | NCI-H23 lung | SK-MEL-5 melanoma | MCF7 breast | OVCAR-8 ovarian | NCI/ADR-RES ovarian | SN12C renal

Brc1cc2c(cc1C1SCCS1)OCO2
> 100 µM: CAKI-1 renal | MOLT-4 leukemia | M14 melanoma | K-562 leukemia | CCRF-CEM leukemia | DMS 114 small cell lung | SK-MEL-2 melanoma | TK-10 renal | OVCAR-4 ovarian | OVCAR-3 ovarian | NCI-H23 lung | SK-MEL-5 melanoma | OVCAR-8 ovarian

COc1ccccc1/C=C1\CCC(CCN2CCOCC2)C1=O (stereo not drawn)
> 100 µM: CAKI-1 renal | NCI-H226 lung | MOLT-4 leukemia | M14 melanoma | K-562 leukemia | CCRF-CEM leukemia | DMS 114 small cell lung | SK-MEL-2 melanoma | TK-10 renal | OVCAR-4 ovarian | OVCAR-3 ovarian | NCI-H23 lung | SK-MEL-5 melanoma | OVCAR-8 ovarian | SN12C renal

Cc1nn(C)cc1P(=S)(c1ccccc1)c1ccccc1
> 100 µM: CAKI-1 renal | MOLT-4 leukemia | M14 melanoma | COLO 205 colon | K-562 leukemia | CCRF-CEM leukemia | DMS 114 small cell lung | SK-MEL-2 melanoma | TK-10 renal | OVCAR-4 ovarian | OVCAR-3 ovarian | NCI-H23 lung | SK-MEL-5 melanoma | OVCAR-8 ovarian | SN12C renal

COc1ccc(C=C(c2ccc(OCc3ccccc3)cc2)c2ccc(OCc3ccccc3)cc2)cc1
> 100 µM: CAKI-1 renal | NCI-H226 lung | M14 melanoma | COLO 205 colon | DMS 114 small cell lung | SK-MEL-2 melanoma | TK-10 renal | OVCAR-4 ovarian | OVCAR-3 ovarian | NCI-H23 lung | SK-MEL-5 melanoma | OVCAR-8 ovarian | SN12C renal

NC(N)=NS(=O)(=O)c1ccc(Nc2c3ccccc3nc3c(C(=O)Nc4ccc(S(N)(=O)=O)cc4)ccc(Cl)c23)cc1
> 100 µM: CAKI-1 renal | NCI-H226 lung | MOLT-4 leukemia | M14 melanoma | COLO 205 colon | K-562 leukemia | DMS 114 small cell lung | TK-10 renal | OVCAR-4 ovarian | OVCAR-3 ovarian | NCI-H23 lung | SK-MEL-5 melanoma | OVCAR-8 ovarian | SN12C renal

O=[N+]([O-])c1c(C=Nc2ccccc2)oc(-c2ccc3c(c2)OCO3)c1-c1ccc2c(c1)OCO2
> 100 µM: CAKI-1 renal | NCI-H226 lung | MOLT-4 leukemia | M14 melanoma | COLO 205 colon | K-562 leukemia | DMS 114 small cell lung | TK-10 renal | OVCAR-4 ovarian | OVCAR-3 ovarian | NCI-H23 lung | SK-MEL-5 melanoma | OVCAR-8 ovarian | SN12C renal

CC(=O)c1cccc(NC(=O)C(=O)Nn2c(N)nnc2N)c1
> 100 µM: CAKI-1 renal | NCI-H226 lung | MOLT-4 leukemia | M14 melanoma | COLO 205 colon | K-562 leukemia | CCRF-CEM leukemia | DMS 114 small cell lung | SK-MEL-2 melanoma | TK-10 renal | OVCAR-4 ovarian | NCI-H23 lung | SK-MEL-5 melanoma | OVCAR-8 ovarian | SN12C renal
